Test results as given in US6294519A, “Method for treating ischemia” (University of Kentucky Research Foundation, priority 2000, dated 2001).

System: focal middle cerebral arterial occlusion (MCAO) ischemia
Conditions: for neurological deficits (behavior ranking 0 to 3): 4 mg/kg i.p. at 6.5, 4.5, 2.5 and 0.5 h prior to ischemia, 24 h reperfusion, mean±SEM, n=8, 0=normal, 3=severe; for neurological deficits (behavior ranking 0 to 3) / infarct volume reduction compared to control animals: 1 h MCAO; for infarct volume reduction compared to control animals / differences in MABP, pO2, pCO2, pH or rectal temperature versus control animals: 4 mg/kg i.p. x4 prior to ischemia; for infarct volume reduction compared to control animals / statistical significance of the infarct volume difference versus control: after 24 h of reperfusion; for statistical significance of the infarct volume difference versus control: significance at p<0.05; for differences in MABP, pO2, pCO2, pH or rectal temperature versus control animals: post ischemia

Structure (SMILES) | neurological deficits (behavior ranking 0 to 3) | infarct volume reduction compared to control animals | statistical significance of the infarct volume difference versus control | differences in MABP, pO2, pCO2, pH or rectal temperature versus control animals
CC(C)C[C@@H](NC(=O)[C@H](Cc1ccccc1)NC(=O)CNC(=O)[C@@H](C)NC(=O)[C@@H](N)Cc1ccc(O)cc1)C(=O)O [DADLE, Tyr-D-Ala-Gly-Phe-D-Leu-enkephalin] | 1.73±0.20 | 12% | not statistically significant | no significant differences
CC(C)[C@H](NC(=O)[C@H](CC(=O)O)NC(=O)[C@H](Cc1ccccc1)NC(=O)[C@@H](C)NC(=O)[C@@H](N)Cc1ccc(O)cc1)C(=O)N[C@H](C(=O)NCC(N)=O)C(C)C [deltorphin, Tyr-Ala-Phe-Asp-Val-Val-Gly-NH2] | 0.44±0.11 | 42% | significantly reduced | no significant differences
